Data taken from ChEMBL document CHEMBL4732064, “Structure-activity relationship studies of phenothiazine derivatives as a new class of ferroptosis inhibitors together with the therapeutic effect in an ischemic stroke model” (Eur J Med Chem, 2021).
Activity calls are given as the source filed them. No cut-off for these calls is given here.

Columns and labels:
HT-1080 [1] = assay: Inhibition of staurosporine-induced apoptotic cell death in human HT-1080 cells assessed as cell viability at 10 uM; type: functional, cell-based
HT-29 = assay: Protection against TNFalpha/Smac-mimetic/Z-VAD-FMK-induced necroptosis in human HT-29 cells assessed as cell viability at 10 uM; type: functional, cell-based
THP-1 = assay: Protection against nigericin-induced pyroptosis in human THP-1 cells assessed as cell viability at 10 uM; type: functional, cell-based
BXPC-3 = assay: Inhibition of erastin-induced ferroptosis in human BXPC-3 cells assessed as cell viability incubated for 48 hrs by MTT assay; type: functional, cell-based; conditions: BXPC-3, 48 h
[2] = target: T1, Alpha-1A adrenergic receptor (Homo sapiens) (UniProt P35348); assay: Antagonist activity at ADRA1A (unknown origin) by FLIPR assay
T1 sequence (whole entry): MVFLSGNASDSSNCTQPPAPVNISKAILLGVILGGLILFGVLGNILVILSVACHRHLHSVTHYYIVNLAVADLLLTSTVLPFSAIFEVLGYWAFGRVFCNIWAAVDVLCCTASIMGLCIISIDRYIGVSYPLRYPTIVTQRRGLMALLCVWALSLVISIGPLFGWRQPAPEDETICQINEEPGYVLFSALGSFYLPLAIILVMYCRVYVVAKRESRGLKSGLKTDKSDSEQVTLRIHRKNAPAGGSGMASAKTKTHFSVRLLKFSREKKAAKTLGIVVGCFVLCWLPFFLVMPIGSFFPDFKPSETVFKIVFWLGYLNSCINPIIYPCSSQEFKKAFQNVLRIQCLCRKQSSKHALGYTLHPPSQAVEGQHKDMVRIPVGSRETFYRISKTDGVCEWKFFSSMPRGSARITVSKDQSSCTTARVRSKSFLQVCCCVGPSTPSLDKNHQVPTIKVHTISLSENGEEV

[3] = target: 5-hydroxytryptamine receptor 2A (Homo sapiens) (UniProt P28223); assay: Antagonist activity at HTR2A (unknown origin) by FLIPR assay
5-hydroxytryptamine receptor 2A (Homo sapiens), sequence (P28223 whole entry): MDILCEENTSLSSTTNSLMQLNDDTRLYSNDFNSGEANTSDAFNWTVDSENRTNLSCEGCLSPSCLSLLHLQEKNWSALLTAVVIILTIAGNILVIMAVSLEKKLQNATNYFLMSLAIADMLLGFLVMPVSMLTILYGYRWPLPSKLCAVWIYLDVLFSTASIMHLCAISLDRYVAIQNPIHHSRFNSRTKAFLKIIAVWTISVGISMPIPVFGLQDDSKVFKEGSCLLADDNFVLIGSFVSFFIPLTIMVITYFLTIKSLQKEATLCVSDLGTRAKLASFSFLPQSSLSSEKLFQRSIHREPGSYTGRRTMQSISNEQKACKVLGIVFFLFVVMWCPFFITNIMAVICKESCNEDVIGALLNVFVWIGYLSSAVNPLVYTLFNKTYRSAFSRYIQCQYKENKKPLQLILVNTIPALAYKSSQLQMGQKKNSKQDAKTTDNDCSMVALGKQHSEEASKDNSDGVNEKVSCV

[4] = target: T2, 5-hydroxytryptamine receptor 2C (Homo sapiens) (UniProt P28335); assay: Antagonist activity at HTR2C (unknown origin) by FLIPR assay
T2 sequence (whole entry): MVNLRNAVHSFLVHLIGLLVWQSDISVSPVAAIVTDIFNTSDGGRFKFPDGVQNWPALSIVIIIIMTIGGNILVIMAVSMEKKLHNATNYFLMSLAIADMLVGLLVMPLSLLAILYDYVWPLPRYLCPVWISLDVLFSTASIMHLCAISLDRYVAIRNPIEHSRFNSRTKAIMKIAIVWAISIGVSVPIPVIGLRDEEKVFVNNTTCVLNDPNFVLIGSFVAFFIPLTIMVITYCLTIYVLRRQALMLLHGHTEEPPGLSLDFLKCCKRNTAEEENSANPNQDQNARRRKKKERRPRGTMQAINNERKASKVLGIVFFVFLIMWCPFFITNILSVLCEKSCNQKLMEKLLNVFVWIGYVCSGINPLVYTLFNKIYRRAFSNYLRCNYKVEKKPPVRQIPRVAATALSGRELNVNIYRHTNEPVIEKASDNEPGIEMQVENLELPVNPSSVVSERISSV

[5] = target: T3, Alpha-1B adrenergic receptor (Homo sapiens) (UniProt P35368); assay: Antagonist activity at ADRA1B (unknown origin) by FLIPR assay
T3 sequence (whole entry): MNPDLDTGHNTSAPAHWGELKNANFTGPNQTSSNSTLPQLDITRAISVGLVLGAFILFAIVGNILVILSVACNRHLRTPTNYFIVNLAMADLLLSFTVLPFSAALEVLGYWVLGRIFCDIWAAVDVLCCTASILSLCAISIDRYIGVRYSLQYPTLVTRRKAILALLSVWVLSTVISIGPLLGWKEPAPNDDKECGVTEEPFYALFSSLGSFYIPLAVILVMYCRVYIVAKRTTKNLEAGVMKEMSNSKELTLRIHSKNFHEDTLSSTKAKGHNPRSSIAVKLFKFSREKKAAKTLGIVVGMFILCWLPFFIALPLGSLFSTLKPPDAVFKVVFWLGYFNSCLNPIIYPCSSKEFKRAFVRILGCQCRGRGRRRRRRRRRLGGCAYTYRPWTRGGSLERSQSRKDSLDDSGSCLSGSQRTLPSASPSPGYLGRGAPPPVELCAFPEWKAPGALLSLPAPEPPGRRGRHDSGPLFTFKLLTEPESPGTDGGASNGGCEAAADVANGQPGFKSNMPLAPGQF

[6] = target: Histamine H1 receptor (Homo sapiens) (UniProt P35367); assay: Antagonist activity at H1 (unknown origin) by FLIPR assay
Histamine H1 receptor (Homo sapiens), sequence (P35367 whole entry): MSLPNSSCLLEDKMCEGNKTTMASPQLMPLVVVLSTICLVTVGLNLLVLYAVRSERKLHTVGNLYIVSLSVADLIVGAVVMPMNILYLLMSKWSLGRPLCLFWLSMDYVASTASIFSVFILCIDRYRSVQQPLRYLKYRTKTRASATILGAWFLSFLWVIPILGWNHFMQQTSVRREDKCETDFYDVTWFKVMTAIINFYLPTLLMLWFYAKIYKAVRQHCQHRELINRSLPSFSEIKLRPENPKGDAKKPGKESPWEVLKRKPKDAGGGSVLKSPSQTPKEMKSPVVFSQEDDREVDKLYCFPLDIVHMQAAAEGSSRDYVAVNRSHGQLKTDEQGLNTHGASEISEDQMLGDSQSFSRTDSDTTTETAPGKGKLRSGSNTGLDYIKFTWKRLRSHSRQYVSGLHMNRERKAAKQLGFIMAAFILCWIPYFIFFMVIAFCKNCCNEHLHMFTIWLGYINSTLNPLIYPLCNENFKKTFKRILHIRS

HT-1080 [7] = assay: Downregulation of GPX4 expression in erastin-induced human HT-1080 cell ferroptosis model at 0.01 to 1 uM after 10 hrs by Western blot analysis; type: functional; conditions: dose 0.01-1 µM
HT-1080 [8] = assay: Downregulation of GPX4 expression in erastin-induced human HT-1080 cell ferroptosis model at 1 uM after 10 hrs by Western blot analysis; type: functional
HT-1080 [9] = assay: Inhibition of xCT expression in erastin-induced human HT-1080 cell ferroptosis model at 0.01 to 1 uM after 10 hrs by Western blot analysis; type: functional; conditions: dose 0.01-1 µM
HT-1080 [10] = assay: Inhibition of LOX expression in erastin-induced human HT-1080 cell ferroptosis model at 0.01 to 1 uM after 10 hrs by Western blot analysis; type: functional; conditions: dose 0.01-1 µM
HT-1080 [11] = assay: Reduction in lipid oxidation level in erastin-induced human HT-1080 cell ferroptosis model assessed as decrease in MDA accumulation at 0.01 to 1 uM; type: functional; conditions: dose 0.01-1 µM
HT-1080 [12] = assay: Antioxidant activity in erastin-induced human HT-1080 cell ferroptosis model assessed as decrease in cytosolic ROS accumulation at 0.01 to 1 uM incubated for 8 to 24 hrs by DCFH-DA staining based assay; type: functional; conditions: dose 0.01-1 µM, time 8-24 hrs
Calu-1 [13] = assay: Antioxidant activity in erastin-induced human Calu-1 cell ferroptosis model assessed as decrease in cytosolic ROS accumulation at 0.01 to 1 uM incubated for 8 to 24 hrs by DCFH-DA staining based assay; type: functional; conditions: dose 0.01-1 µM, time 8-24 hrs
Calu-1 [14] = assay: Antioxidant activity in erastin-induced human Calu-1 cell ferroptosis model assessed as decrease in lipid ROS accumulation at 0.01 to 1 uM incubated for 8 to 24 hrs by BODIPY 581/591 C11 staining based flow cytometric analysis; type: functional; conditions: dose 0.01-1 µM, time 8-24 hrs
Rattus norvegicus [15] = assay: Protective activity in Sprague-Dawley rat model of middle cerebral artery occlusion-induced ischemia-reperfusion injury assessed as restoration of walking ability at 5 mg/kg, iv measured after 24 hrs of post reperfusion […]; type: functional, organism-based
Rattus norvegicus [16] = assay: Protective activity in Sprague-Dawley rat model of middle cerebral artery occlusion-induced ischemia-reperfusion injury assessed as increase in GSH level at 5 mg/kg, iv measured after 24 hrs of post reperfusion […]; type: functional, organism-based
Rattus norvegicus [17] = assay: Protective activity in Sprague-Dawley rat model of middle cerebral artery occlusion-induced ischemia-reperfusion injury assessed as reduction in MDA level at 5 mg/kg, iv measured after 24 hrs of post reperfusion […]; type: functional, organism-based
[18] = target: Indoleamine 2,3-dioxygenase 1 (Homo sapiens, UniProt P14902); assay: Inhibition of IDO1 (unknown origin)
Indoleamine 2,3-dioxygenase 1, sequence (P14902 whole entry): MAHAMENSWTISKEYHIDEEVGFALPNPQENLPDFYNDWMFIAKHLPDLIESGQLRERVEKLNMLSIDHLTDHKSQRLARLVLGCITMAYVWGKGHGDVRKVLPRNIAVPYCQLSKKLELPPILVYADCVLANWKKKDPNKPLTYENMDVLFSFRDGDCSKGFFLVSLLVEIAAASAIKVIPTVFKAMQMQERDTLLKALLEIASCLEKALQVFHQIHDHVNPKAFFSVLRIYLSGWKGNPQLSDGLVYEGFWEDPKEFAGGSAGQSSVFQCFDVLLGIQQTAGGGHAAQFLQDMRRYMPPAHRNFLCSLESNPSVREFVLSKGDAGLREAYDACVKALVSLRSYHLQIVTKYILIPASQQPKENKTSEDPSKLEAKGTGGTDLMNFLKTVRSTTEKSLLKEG

CC(c1ccc(N2CCN(C)CC2)cc1)c1ccc2c(c1)Nc1ccccc1S2 (stereo unspecified)
Activity (HT-1080 [1]): inactive
Activity (HT-29): inactive
Activity (THP-1): inactive
EC50 (BXPC-3): 2.92 nM
Activity [2]: inactive
Activity [3]: inactive
Activity [4]: inactive
Activity [5]: inactive
Activity [6]: inactive
Activity (HT-1080 [7]): inactive
Activity (HT-1080 [8]): inactive
inhibition (HT-1080 [9]): inactive
inhibition (HT-1080 [10]): inactive
Activity (HT-1080 [11]): Active
Activity (HT-1080 [12]): Active
Activity (Calu-1 [13]): Active
Activity (Calu-1 [14]): Active
Activity (Rattus norvegicus [15]): Active
Activity (Rattus norvegicus [16]): Active
Activity (Rattus norvegicus [17]): Active
IC50 [18]: > 10 µM
